Results on one compound are retold here after patent publication US6638974B1, “Ascorbyl esters for the treatment of cancer” (University of South Florida, priority 1999, dated 2003).

The subject of assay [1] is OVCAR-3 and PANC-1 s.c. tumors. The assay is described as follows: s.c. OVCAR-3 and PANC-1 tumors in BALB/c nude mice. The settings on record: 100 mg/Kg s.c. daily for two weeks. The format is in vivo, mouse. The method, then:
The experimental approach is to test effect of Ascorbyl stearate (Asc-S) on the tumorigenicity of ovarian and pancreatic tumor cells. Procedures involve culturing OVCOR-3 (ovarian cancer cells) and PANC-1 (pancreatic cancer cells). When confluent, cells were trypsinized, washed and resuspended in sterile phosphate buffered solution ([…]) in a volume of 0.1 ml and injected s.c. above the hind leg of the mice. Two groups each for OVCOR-3 and PANC-1 tumor cells were established.
Asc-S is lipophilic compound. Asc-S was dissolved in a small volume of ethyl alcohol and then reconstituted in sterile normal saline. The final concentration of ethyl alcohol was ˜5%. At that concentration ethyl alcohol would not have any deleterious effect. […] The controls received […] of a mixture of 0.5:10 ethyl alcohol and sterile normal saline.
Group 1 is made up of OVCAR-3 cells plus Vehicle. A mixture of 0.5:10 of ethyl alcohol and normal saline was used as the vehicle. Group 2 is made up of OVCAR-3 cells plus Asc-S at a concentration of 100 mg/Kg was administered subcutaneously at the vicinity of the s.c. tumor one week prior to treatment with Asc-S. The Asc-S was distributed in a small volume of ethyl alcohol and then reconstituted into normal saline. […]
For the preliminary studies, six mice per group were used. […] The s.c. tumors were isolated, tumor sizes were measured and processed for pathological evaluation. […]

In a further assay the test system is c-Src. The assay is described as follows: c-Src expression by Western immunoblot, T98G. Type of assay: cell-based, human. The settings on record: 100 μM, 24 h. As for the experimental part:
The Src oncogene product was the first to be identified as tyrosine kinase. Today the “Src-family” of non-receptor tyrosine kinases is known to be represented in every cell type and signaling system. […] This observation is further corroborated with the data on the dose and time dependent inhibition of IGF1-R described herein.
The T98G cells are exponentially grown in MEM with 10 nM human recombinant IGF-1 (Bachem California, Torrance, Calif.) or MEM with 10% FBS. The cells were disrupted in cold lysis buffer (10 μM terra sodium pyrophosphate, 20 mM HEPES, 1% Triton X-100, 100 mM NaCl, 2 ug/ml aprotinin, 2 μg/ml leupeptin and 100 μg/ml of PMSF). The crude lysates were centrifuged and protein concentration was determined by using Pierce BCA Protein Assay kit. […] Rabbit anti-human polyclonal primary antibodies to c-Src (pp60^Src (aa403-421) (Upstate Biotechnology, Lake Placid, N.Y.) were incubated for one hour at room temperature in TBST and 1% nonfat milk. The blots were then washed and incubated with anti-rabbit horseradish peroxidase conjugated secondary antibody (Oncogene Science, Inc. Uniondale, N.Y.). Antigen bound to nitrocellulose membrane was detected with the ECL system (Amersham Corp., Arlington Heights, Ill.). FIG. 9A was a positive control for c-Src from A431 cell lysate, FIGS. 9B and C were untreated and 100 μM […] treated T98G cell lysates respectively.

The test system of another assay is T98G cells. The assay is described as follows: MTT cell proliferation assay, T98G. The format is cell-based, human. The following applies: for inhibition at 50 µM / inhibition at 100 µM / inhibition at 175 µM: Homo sapiens, T98G. The method, then:
T98G cell proliferation: Murine (G26) and human glioma (U-373) cell proliferation was inhibited following exposure to ascorbyl esters (Naidu et al., 1993a and 1993b). The cell proliferation was assessed by [^3H] thymidine incorporation and MTT assay (Naidu et al., 1993a, 1993b and 1996). […] The T98G cells were cultured for 24 hours in MEM+10% FBS, and, when confluent, were treated with 0 (untreated control), 50, 75, 100, 125, 150 and 175 μM Asc-S. Appropriate untreated controls were included. The cell proliferation was measured by MTT assay.

On to `CCCCCCCCCCCCCCCCCC(=O)OC[C@H](O)[C@H]1OC(=O)C(O)=C1O` [Asc-S, Ascorbyl stearate], for which the “apoptotic cells in s.c. tumors (pathological evaluation)” value in assay [1] is given as “predominantly higher percentage of apoptotic cells”. Besides, the “decrease in the size of the tumors compared to untreated controls” value in assay [1] is recorded as 70%. Besides, the “c-Src expression, T98G cells” value in the assay with c-Src is reported as “did not affect”. Also, the “T98G cell proliferation (MTT assay)” value in the assay on T98G cells (50-175 μM Asc-S, 24 hours) was “inhibited cell proliferation in a dose dependent manner”. Also, the inhibition at 50 µM with T98G cells (cultured with FBS, 50 μM) stood at 8.7%; in the assay on T98G cells (with IGF-1, 50 μM), 15.3%. For the same compound, the inhibition at 100 µM was determined as 38.5% in the assay with T98G cells (cultured with FBS, 100 μM) and 54.2% in the assay with T98G cells (with IGF-1, 100 μM). Moreover, the inhibition at 175 µM in the assay on T98G cells (cultured with FBS, 175 μM) worked out at 87.2%; in the assay on T98G cells (with IGF-1, 175 μM), 87.7%.
